In brackets after ≈: the same amount, converted by molar mass. Like-named read-outs stand apart in the source and are kept apart here.
Columns and labels:
E. coli DNA gyrase = E. coli DNA gyrase (Escherichia coli, UniProt P0AES6); assay: E. coli DNA gyrase supercoiling assay; assay type: biochemical; details: for IC50: supercoiling assay, average of three independent measurements
Description: (§1) All final compounds were first tested for their inhibitory activity in the E. coli DNA gyrase supercoiling assay and the E. coli topoisomerase IV relaxation assay (Table 1). […] These observations were confirmed with compounds 18a and 18b, which carried the siderophore mimic at position 4. […] With compounds 18a and 18b, we confirmed our hypothesis that it is possible to maintain potent enzyme inhibition after introduction of the siderophore mimic into the structure of the GyrB/ParE inhibitor.
(§2) The assays for determination of IC50 against E. coli DNA gyrase and topoisomerase IV were performed according to previously reported procedures.[23] IC50 values were determined with seven concentrations of the inhibitors. […] IC50 values were determined in three independent measurements, and their average value is given as a final result.

[1] = test system: wild type G− E. coli, P. aeruginosa and A. baumannii; assay: Antibacterial activity against wild type G− bacteria (screen at 50 μM); assay type: cell-based
Description: (§3) Cefiderocol, a siderophore cephalosporin, was used as a positive control. Compound 18a was only tested on E. coli in both media conditions. Iron-depleted conditions were used to determine the effects of the attached siderophore mimics on antibacterial activities, since bacteria under low iron conditions produce and secrete siderophores to take up iron from the extracellular environment.[32] […] We have previously observed that our benzothiazole GyrB/ParE inhibitors are strongly effluxed from the G− bacterial cells and that this effect is especially pronounced in E. coli.[14] Therefore, compounds 10, 12, and 18b were also tested against E. coli JW5503, which is a tolC deletion mutant strain with a defective efflux pump.
The single-gene knock-out mutant strain of E. coli JW5503 (tolC knock-out) was obtained from the E. coli collection of the National BioResource Project at the National Institute of Genetics (Japan).[45] To determine the antibacterial activities, broth microdilution assays were carried out in 96-well plates following the Clinical and Laboratory Standards Institute guidelines.[46] Compounds were prepared as 100% DMSO stock solutions. The final concentration of DMSO was 1% and had no effect on the growth of bacteria. Preliminary screening was performed at 50 μM, and growth inhibition was measured after 24 h incubation at 37 °C. For compounds displaying >90% growth inhibition in the preliminary assay, MIC values were determined in dose–response assays (from at least two independent experiments, each with three replicates per concentration). Cation-adjusted Mueller-Hinton broth (CAMHB, BD) was used in all assays. CAMHB was prepared according to manufacturer's instructions and iron-depleted CAMHB (ID-CAMHB) according to CLSI guidelines. ID-CAMHB was used in order to mimic the conditions faced by bacteria during human infections, and induces the ferric iron transport. ID-CAMHB was prepared by adding 100 g of Chelex 100 resin (Bio-Rad) to 1 L of autoclaved CAMHB and stirred for 2 h at room temperature, in order to remove cations from the medium. Then, broth was filtered using a 0.2 μm filter to remove the resin and pH adjusted to 7.3 using 5 M hydrochloric acid. ID-CAMHB was then supplemented with calcium (CaCl2), magnesium (MgCl2) and zinc (ZnSO4) to final concentrations of 22.5 μg mL^−1, 11.25 μg mL^−1 and 0.56 μg mL^−1, respectively, and filtered again. To evaluate the effect of iron concentration on antibacterial effect of compounds, an appropriate amount of iron(III) chloride was added to ID-CAMHB, and this supplemented media was used as control CAMHB. […] Cefiderocol, a positive control, MICs were determined against E. coli, P. aeruginosa and A. baumannii, and used as positive control in the assays. […]

E. coli ATCC 25922 = assay: Broth microdilution MIC, E. coli ATCC 25922; assay type: cell-based, Escherichia coli
Description: as §3
(§4) The single-gene knock-out mutant strain of E. coli JW5503 (tolC knock-out) was obtained from the E. coli collection of the National BioResource Project at the National Institute of Genetics (Japan).[45] To determine the antibacterial activities, broth microdilution assays were carried out in 96-well plates following the Clinical and Laboratory Standards Institute guidelines.[46] Compounds were prepared as 100% DMSO stock solutions. The final concentration of DMSO was 1% and had no effect on the growth of bacteria. Preliminary screening was performed at 50 μM, and growth inhibition was measured after 24 h incubation at 37 °C. For compounds displaying >90% growth inhibition in the preliminary assay, MIC values were determined in dose–response assays (from at least two independent experiments, each with three replicates per concentration). Cation-adjusted Mueller-Hinton broth (CAMHB, BD) was used in all assays. CAMHB was prepared according to manufacturer's instructions and iron-depleted CAMHB (ID-CAMHB) according to CLSI guidelines. ID-CAMHB was used in order to mimic the conditions faced by bacteria during human infections, and induces the ferric iron transport. ID-CAMHB was prepared by adding 100 g of Chelex 100 resin (Bio-Rad) to 1 L of autoclaved CAMHB and stirred for 2 h at room temperature, in order to remove cations from the medium. Then, broth was filtered using a 0.2 μm filter to remove the resin and pH adjusted to 7.3 using 5 M hydrochloric acid. ID-CAMHB was then supplemented with calcium (CaCl2), magnesium (MgCl2) and zinc (ZnSO4) to final concentrations of 22.5 μg mL^−1, 11.25 μg mL^−1 and 0.56 μg mL^−1, respectively, and filtered again. To evaluate the effect of iron concentration on antibacterial effect of compounds, an appropriate amount of iron(III) chloride was added to ID-CAMHB, and this supplemented media was used as control CAMHB. The iron concentration in CAMHB and ID-CAMHB were approximately 0.2 mg L^−1 and ≤0.03 mg L^−1, respectively. Cefiderocol, a positive control, MICs were determined against E. coli, P. aeruginosa and A. baumannii, and used as positive control in the assays. Cefiderocol was purchased from MedChemExpress Europe.

E. coli topoisomerase IV [2] = biological target: T1, E. coli topoisomerase IV (Escherichia coli, UniProt P20083); assay: E. coli topoisomerase IV relaxation assay; assay type: biochemical; details: average of three independent measurements
Description: as §1, §2

E. coli JW5503 = assay: Broth microdilution MIC, efflux-defective E. coli JW5503 (tolC deletion mutant); assay type: cell-based, Escherichia coli; details: for MIC: Escherichia coli; for improvement of antibacterial activity in iron-depleted medium: iron-depleted vs iron-supplemented medium, E. coli JW5503
Description: as §3, §4

P. aeruginosa ATCC 27853 = assay: Broth microdilution MIC, P. aeruginosa ATCC 27853; assay type: cell-based; details: Pseudomonas aeruginosa, ATCC27853, P. aeruginosa ATCC 27853, read-out: Minimum inhibitory concentrations
Description: as §3, §4

A. baumannii ATCC 19606 = assay: Broth microdilution MIC, A. baumannii ATCC 19606; assay type: cell-based; details: Acinetobacter baumannii, ATCC19606, A. baumannii ATCC 19606, read-out: Minimum inhibitory concentrations
Description: as §3, §4

E. coli topoisomerase IV [3] = biological target: T1, E. coli topoisomerase IV; design: method as in PMID 33017402, PMID 33524686, PMID 36634346, PMID 36877255; details: parent inhibitors; cited from earlier work
[4] = E. coli ATCC 25922, +Fe: CAMHB + Fe, read-out: Minimum inhibitory concentrations
[5] = JW5503, read-out: Minimum inhibitory concentrations, E. coli JW5503, +Fe: CAMHB + Fe
[6] = JW5503, read-out: Minimum inhibitory concentrations, E. coli JW5503, −Fe: ID-CAMHB
[7] = Escherichia coli, ATCC25922, read-out: Minimum inhibitory concentrations

T1 sequence (P0AFI2 whole entry): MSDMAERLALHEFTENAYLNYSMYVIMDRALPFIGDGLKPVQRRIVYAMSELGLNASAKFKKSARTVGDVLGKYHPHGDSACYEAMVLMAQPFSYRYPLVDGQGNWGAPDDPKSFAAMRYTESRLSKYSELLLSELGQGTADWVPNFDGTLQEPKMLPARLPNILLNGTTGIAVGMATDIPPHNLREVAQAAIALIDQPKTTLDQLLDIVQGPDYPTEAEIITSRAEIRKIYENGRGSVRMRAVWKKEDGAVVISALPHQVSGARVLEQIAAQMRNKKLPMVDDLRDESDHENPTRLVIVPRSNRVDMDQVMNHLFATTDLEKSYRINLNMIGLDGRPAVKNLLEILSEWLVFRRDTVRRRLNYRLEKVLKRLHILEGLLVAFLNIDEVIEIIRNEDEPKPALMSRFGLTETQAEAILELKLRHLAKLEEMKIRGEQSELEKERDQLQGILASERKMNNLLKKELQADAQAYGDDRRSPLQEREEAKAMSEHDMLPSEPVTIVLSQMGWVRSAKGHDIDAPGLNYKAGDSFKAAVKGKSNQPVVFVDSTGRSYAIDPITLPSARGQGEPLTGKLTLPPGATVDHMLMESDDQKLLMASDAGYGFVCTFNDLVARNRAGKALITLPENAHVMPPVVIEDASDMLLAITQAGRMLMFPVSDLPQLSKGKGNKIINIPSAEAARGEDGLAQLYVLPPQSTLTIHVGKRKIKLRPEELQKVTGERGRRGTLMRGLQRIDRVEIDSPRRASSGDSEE
T1 sequence (P20083 whole entry): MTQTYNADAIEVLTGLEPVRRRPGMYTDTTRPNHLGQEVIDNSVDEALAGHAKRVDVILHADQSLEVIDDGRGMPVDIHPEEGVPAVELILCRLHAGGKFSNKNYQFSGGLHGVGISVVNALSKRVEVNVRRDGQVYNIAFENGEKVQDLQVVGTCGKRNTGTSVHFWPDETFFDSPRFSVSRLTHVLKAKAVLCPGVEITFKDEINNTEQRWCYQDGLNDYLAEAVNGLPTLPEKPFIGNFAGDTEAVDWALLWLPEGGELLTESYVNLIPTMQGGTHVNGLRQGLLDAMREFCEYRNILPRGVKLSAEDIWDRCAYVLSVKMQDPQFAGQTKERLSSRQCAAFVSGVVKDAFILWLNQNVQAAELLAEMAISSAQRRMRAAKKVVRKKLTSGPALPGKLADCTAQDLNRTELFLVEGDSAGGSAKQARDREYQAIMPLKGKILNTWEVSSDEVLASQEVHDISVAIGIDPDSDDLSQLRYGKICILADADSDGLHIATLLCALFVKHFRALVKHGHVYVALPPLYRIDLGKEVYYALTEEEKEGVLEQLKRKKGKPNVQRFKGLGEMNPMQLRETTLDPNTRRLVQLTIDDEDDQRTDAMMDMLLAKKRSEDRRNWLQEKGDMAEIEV

Row | SMILES | IC50 E. coli DNA gyrase (range in words) (E. coli DNA gyrase) | IC50 (E. coli DNA gyrase) [nM] | MIC ([1]; iron-supplemented and iron-depleted media, indicated by weak activity at 50 μM, read-out: MIC) [µM] | MIC (E. coli ATCC 25922; [4]) [µM] | MIC (E. coli ATCC 25922; Escherichia coli, ATCC25922, E. coli ATCC 25922, −Fe: iron depleted CAMHB (ID-CAMHB), read-out: Minimum inhibitory concentrations) [µM] | IC50 (E. coli topoisomerase IV [2]) [nM] | MIC (E. coli JW5503; [5]) [µM] | MIC (E. coli JW5503; [6]) [µM] | MIC [1] [µM] | MIC (P. aeruginosa ATCC 27853; +Fe: CAMHB + Fe) [µM] | MIC (P. aeruginosa ATCC 27853; −Fe: ID-CAMHB) [µM] | MIC (E. coli ATCC 25922; [7]) [µM] | melting point [°C] | MIC (A. baumannii ATCC 19606; +Fe: CAMHB + Fe) [µM] | MIC (A. baumannii ATCC 19606; −Fe: ID-CAMHB) [µM] | IC50 (E. coli topoisomerase IV [3]) [nM] | improvement of antibacterial activity in iron-depleted medium (E. coli JW5503) | MIC (E. coli JW5503; JW5503, E. coli JW5503, iron-depleted conditions) [µg/mL] | MIC (E. coli JW5503; JW5503, E. coli JW5503, iron-supplemented conditions) [µg/mL]
1 | O=C(O)c1cc(OCc2cc(=O)c(O)c[nH]2)c2nc(NC(=O)c3cc(Br)c(Br)[nH]3)sc2c1 [Compound 18a, 2-(4,5-Dibromo-1H-pyrrole-2-carboxamido)-4-((5-hydroxy-4-oxo-1,4-dihydropyridin-2-yl)methoxy)benzo[d]thiazole-6-carboxylic acid] | low nanomolar range | 12 ± 5 | > 50 | >50 | > 50 | 1280 ± 820 |  |  |  |  |  |  |  |  |  |  |  |  | 
2 | O=C(NCc1cc(=O)c(O)co1)c1ccc2nc(NC(=O)c3cc(Br)c(Br)[nH]3)sc2c1 [Compound 10, 2-(4,5-Dibromo-1H-pyrrole-2-carboxamido)-N-((5-hydroxy-4-oxo-4H-pyran-2-yl)methyl)benzo[d]thiazole-6-carboxamide] | low micromolar range | 1420 ± 180 |  | >50 |  | > 10000 | > 50 | > 50 | > 50 | > 50 | > 50 | > 50 | > 300 | > 50 | > 50 |  |  |  | 
3 | Cc1[nH]c(C(=O)Nc2nc3ccc(C(=O)O)cc3s2)c(Cl)c1Cl [A] |  |  |  |  |  |  |  |  |  |  |  |  |  |  |  | 500 ± 280 |  |  | 
4 | CC(C)(O/N=C(\C(=O)N[C@@H]1C(=O)N2C(C(=O)[O-])=C(C[N+]3(CCNC(=O)c4ccc(O)c(O)c4Cl)CCCC3)CS[C@H]12)c1csc(N)n1)C(=O)O [Cefiderocol, reference compound] |  |  |  | 0.25 |  |  | 0.125 | 0.0625 |  | 1 | 0.25 (≈ 0.188 µg/mL) | 0.25 (≈ 0.188 µg/mL) |  | 2 | 0.25 (≈ 0.188 µg/mL) |  | twofold |  | 
5 | O=C(NCc1cc(=O)c(O)c[nH]1)c1ccc2nc(NC(=O)c3cc(Br)c(Br)[nH]3)sc2c1 [Compound 12, 2-(4,5-Dibromo-1H-pyrrole-2-carboxamido)-N-((5-hydroxy-4-oxo-1,4-dihydropyridin-2-yl)methyl)benzo[d]thiazole-6-carboxamide] | low micromolar range | 1700 ± 360 |  | >50 |  | > 10000 | > 50 | > 50 | > 50 | > 50 | > 50 | > 50 | > 300 | > 50 | > 50 |  |  |  | 
6 | Cc1[nH]c(C(=O)Nc2nc3c(OCc4cc(=O)c(O)c[nH]4)cc(C(=O)O)cc3s2)c(Cl)c1Cl [Compound 18b, 2-(3,4-Dichloro-5-methyl-1H-pyrrole-2-carboxamido)-4-((5-hydroxy-4-oxo-1,4-dihydropyridin-2-yl)methoxy)benzo[d]thiazole-6-carboxylic acid] | low nanomolar range | 22 ± 6 |  | >50 |  | 430 ± 20 | 25 | 12.5 | > 50 | > 50 | > 50 | > 50 | > 300 | > 50 | > 50 |  | twofold | 6.37 | 12.7

Reference: article PMC10794952, “Benzothiazole DNA gyrase inhibitors and their conjugates with siderophore mimics: design, synthesis and evaluation” (RSC Advances, 2024)
